Reference: patent publication US5574173A, “Tricyclic derivatives, compositions and methods of use” (Schering Corporation, priority 1993, dated 1996)

What was measured:
[1] = system: LPS-Induced TNF-α Production From the Murine Cell Line WEHI-265; assay: In vitro inhibition of LPS-induced TNF-α production from the murine cell line WEHI-265; type: cell-based; settings: Mus musculus, WEHI-265 cells, LPS from E. coli 0111:B4, 20-24 h incubation
Procedure: This test procedure is a standard test used to determine anti-TNF-α activity and to evaluate the usefulness of said compounds for counteracting the biological effects of TNF-α.
1. In Vitro Study: Inhibition of LPS-Induced TNF-α
Production From the Murine Cell Line WEHI-265
1) Cells (obtained from cell cultures containing≤10^6 cells/ml) are suspended at 0.2×10^6 cells/ml in complete medium (RPMI1640, with 10% FCS, 10^-5 M 2-ME, 2 mM glutan-fine and 10 mM HEPES buffer) and plated in CoStar 24 well plates (1.0 ml/well).
2) Compounds are dissolved in the appropriate vehicle at 400 times the concentration to be tested, and 5 μl of compound is added to the wells.
3) LPS (from E. coli 0111:B4) is diluted to 6 μg/ml and 1.0 ml is added to wells.
4) Plates are incubated 20-24 hours in 37° CO2 incubator.
5) Supernatant fluids are collected and analyzed for TNF content as described in J. Immunol., 142:3884.

LPS-Induced Serum TNF = assay: In vivo inhibition of LPS-induced serum TNF in mice; design: species or system mice (C57BI/6J); settings: Mus musculus, 1.5 h; 25 mg/kg oral or i.p. one hour before LPS (50 μg i.p.); bled 90 min after LPS; ELISA; values may have a wide margin of error
Procedure: In addition to the in vitro test described above, the following in vivo test was also performed on several of the compounds of the present invention.
1. In Vivo Study: Inhibition of LPS-Induced Serum TNF
Mice (C57BI/6J males, 6-8 weeks of age) are dosed with the indicated compound (dissolved in CMC suspension vehicle; compounds are given orally or i.p. one hour before LPS challenge).
Mice are bled 90 min after LPS challenge.
4) Sera are analyzed for TNF content by ELISA as described in J. Immunol.

[2] = system: LPS/Galactosamine-Induced Lethality; assay: In vivo inhibition of LPS/galactosamine-induced lethality in mice; design: species or system mice (C57BI/6J); settings: 25 mg/kg oral or i.p. one hour before LPS (100 ng) and d-galactosamine (8 mg) i.p.; survival at 24 hours
Procedure: This test procedure is a standard test used to determine activity against septic shock.
3. In Vivo Study: Inhibition of LPS/Galactosamine-Induced Lethality.
1) Mice (C57BI/6J males, 6-8 weeks of age) are dosed with the indicated compound (dissolved in CMC suspension vehicle; compounds are given orally or i.p. one hour before challenge with LPS and d-galactosamine).
2) Mice are challenged i.p. with a mixture of LPS (from E. coli 0111:B4; 100 ng) and d-galactosamine (8 mg).
3) Survival is determined 24 hours after challenge. See procedure published in J. Exp. Med. 165:657 (1987)

Structure (SMILES) | inhibition at 10 µM [1] [%] | inhibition in vivo at 25 mg/kg (LPS-Induced Serum TNF) [%] | # DEAD/TOTAL AT 25 MG/KG [2]
C=CC(CCN(C)C)C1c2ccccc2CCc2ccccc21 (stereo not shown) [Compound IC, 3-(10,11-dihydro-5H-dibenzo[a,d]cyclohepten-5-yl)-N,N-dimethyl-4-pentenamine] | 46 | – | –
CCCC(CN(C)C(=O)OCC)C1c2ccccc2COc2ccccc21 (stereo not shown) [Compound K4] | 48 | – | –
C=CCC(CN(C)C(=O)OCC)C1c2ccccc2COc2ccccc21 (stereo not shown) [IK] | 31 | – | –
CNCCC1c2ccccc2CCc2ccccc21 [Compound K1] | 15 | 71 | 1/10
CCOC(CNC)C1c2ccccc2CCc2ccccc21 (stereo not shown) [IG] | 35 | 51 | 7/9
CCCC(CN(C)C)C1c2ccccc2COc2ccccc21 (stereo not shown) [Compound K2] | 54 | 40 | 7/10
C=CCC(CN(C)C)C1c2ccccc2CCc2ccc(Cl)cc21 (stereo not shown) [IM] | 50 | – | –
CCCC(CNC)C1c2ccccc2COc2ccccc21 (stereo not shown) [Compound K3, N-methyl-2-[6,11-dihydro-dibenzo[b,e]oxepin-11-yl]-pentanamine] | 73 | 27 | –
CCCC(CNC)C1c2ccccc2CCc2ccc(Cl)cc21 (stereo not shown) [Compound K7] | 39 | 58 | –
CCCC(CN(C)C)C1c2ccccc2CCc2ccc(Cl)cc21 (stereo not shown) [Compound K6] | 64 | – | –
CN(C)CC(O)C1c2ccccc2CCc2ccccc21 (stereo not shown) [IF] | 4 | 24 | 8/10
CCOC(C(=O)N(C)C)C1c2ccccc2CCc2ccccc21 (stereo not shown) [Compound IE, 2-ethoxy-2-[10,11-dihydro-5H-dibenzo[a,d]cyclohepten-5-yl]-N,N-dimethyl-acetamide] | 49 | 37 | 10/10
CCOC(CN(C)C)C1c2ccccc2CCc2ccccc21 (stereo not drawn) [Compound IB, β-ethoxy-10,11-dihydro-N, N-dimethyl-5 H-dibenzo[a,d]cycloheptene-5-ethanamine] | 35 | 25 | 8/10
C=CCC(CN(C)C)C1c2ccccc2COc2ccccc21 (stereo not shown) [IH] | 23 | 30 | –
C=CCC(CNC)C1c2ccccc2CCc2ccc(Cl)cc21 (stereo not shown) [IN] | 28 | – | –
C=CCC(CNC)C1c2ccccc2COc2ccccc21 (stereo not shown) [Compound IA, N-methyl-2-[6,11-dihydro-dibenzo[b,e]oxepin-11-yl]-pent-4-en-1-amine] | 54 | 44 | –
C=CCC(CN(C)C(C)=O)C1c2ccccc2COc2ccccc21 (stereo not shown) [IJ] | 34 | – | –
C=CCC(CN(C)C(C)=O)C1c2ccccc2CCc2ccc(Cl)cc21 (stereo not shown) [IL] | 49 | 42 | –
CCCC(CN(C)C(C)=O)C1c2ccccc2COc2ccccc21 (stereo not shown) [Compound K5] | 46 | – | 10/10
